The source made the active and inactive calls. No rule for the calls is given here. Where only a bound is given, the exact number is not on record here.

This assay deals with Mu-type opioid receptor (Homo sapiens) (UniProt P35372). Nature of the assay: activators of OPRM1-OPRD1 heterodimerization, late-stage follow-up, cell-based, luminescence, dose response, set 2 (AID 651762). To be noted: cell-based heterodimer formation, luminescence complementation.
Sequence of Mu-type opioid receptor (Homo sapiens) (P35372 whole entry, looked up): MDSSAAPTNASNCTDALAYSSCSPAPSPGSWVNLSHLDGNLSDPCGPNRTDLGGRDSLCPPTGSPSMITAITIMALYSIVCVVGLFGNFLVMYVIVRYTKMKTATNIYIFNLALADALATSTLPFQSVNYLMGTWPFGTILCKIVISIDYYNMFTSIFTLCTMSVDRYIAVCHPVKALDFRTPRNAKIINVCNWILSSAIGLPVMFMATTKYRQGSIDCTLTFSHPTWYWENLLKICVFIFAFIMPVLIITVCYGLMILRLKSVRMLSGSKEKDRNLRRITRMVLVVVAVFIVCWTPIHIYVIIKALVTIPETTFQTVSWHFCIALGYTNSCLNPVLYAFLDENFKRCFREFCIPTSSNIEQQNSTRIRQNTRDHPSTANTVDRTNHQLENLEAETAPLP
The term EC50 denotes the concentration giving half of the maximal effect. `CCOC(=O)C1(CCc2ccccc2)CCN(Cc2ccncc2)CC1`: the EC50 was > 50 µM (inactive).

For the molecule `CCOC(=O)C1(CCOc2ccccc2)CCCN(Cc2ccc(NC(C)=O)cc2)C1` (stereo not drawn), the EC50 is > 50 µM (inactive).

With `CCOC(=O)C1(CCc2ccccc2)CCN(Cc2ccc(C#CC(C)(C)O)cc2)CC1`, the EC50 is > 50 µM (inactive).

With `CCOC(=O)C1(CCc2ccccc2)CCN(C(=O)Nc2ccc(C)cc2C)CC1`, the EC50 was > 50 µM (inactive).

In the case of `CCOC(=O)C1(CCc2ccccc2)CCN(Cc2ccc(OC)cc2)CC1`, the EC50 was 0.206 µM.

With `CC(=O)Nc1ccc(CN2CCCC(CO)(CCc3ccccc3)C2)cc1` (stereo not drawn), the EC50 is 5.16 µM.

Consider `CCOC(=O)C1(Cc2cccc(OC)c2)CCCN(Cc2ccc(NC(C)=O)cc2)C1` (stereo not drawn), for which the EC50 is > 50 µM (inactive).

As for `CCOC(=O)C1CCN(Cc2ccc(NC(C)=O)cc2)CC1`, the EC50 is > 50 µM (inactive).

For `C=Cc1ccc(C(=O)N2CCC(CCCc3ccccc3)(C(=O)OCC)CC2)cc1`, the EC50 is > 50 µM (inactive).

Turning to `O=C(O)C1CCCCC1C(=O)Nc1ccc(CN2CCCCC2)cc1` (stereo not drawn), the EC50 was > 50 µM (inactive).

In the case of `CCOC(=O)C1CCN(CCC(=O)Nc2ccc(C)cc2)CC1`, the EC50 was > 50 µM (inactive).

In the case of `CCOC(=O)C1(Cc2ccccc2Cl)CCN(Cc2ccc(NC(C)=O)cc2)CC1`, the EC50 was 0.394 µM.

For `CCOC(=O)C1(CC2CC2)CCN(C(=O)c2ccc(N3CCCCC3)cc2)CC1`, the EC50 was > 50 µM (inactive).

`CCOC(=O)C1CCN(C(=O)c2ccc(N(C)C)cc2)CC1`: the EC50 is > 50 µM (inactive).

On to `CCOC(=O)C1(CCOC)CCCN(Cc2ccc(NC(C)=O)cc2)C1` (stereo not drawn), for which the EC50 was > 50 µM (inactive).

Consider `CCOC(=O)C1CCCCN1Cc1ccc(NC(C)=O)cc1` (stereo not drawn), for which the EC50 is > 50 µM (inactive).

As to `CCOC(=O)C1CCN(Cc2ccc(N(C)C)cc2)CC1`, the EC50 was > 50 µM (inactive).

In the case of `CCOC(=O)C1(CCc2ccccc2)CCN(Cc2ccc(C(=O)OC)cc2)CC1`, the EC50 was > 50 µM (inactive).

As for `CCOC(=O)C1(CCc2ccccc2)CCCN(Cc2ccc(N3CCNC3=O)cc2)C1` (stereo not drawn), the EC50 is > 50 µM (inactive).

Regarding `CCOC(=O)C1(CCOC)CCN(Cc2ccc(N(C)c3ccccc3)cc2)CC1`, the EC50 is > 50 µM (inactive).

With `CCOC(=O)C1(CCc2ccccc2)CCN(Cc2ccc(O)cc2)CC1`, the EC50 was > 50 µM (inactive).

Take `C=Cc1ccc(C(=O)N2CCC(CCc3ccccc3)(C(=O)OCC)CC2)cc1`: the EC50 is > 50 µM (inactive).

Regarding `CCOC(=O)C1(CCc2ccccc2)CCN(Cc2c(O)cccc2OC)CC1`, the EC50 is 0.605 µM.

On to `CCOC(=O)C1(CCOC)CCN(Cc2ccc(NC(C)=O)cc2)CC1`, for which the EC50 is > 50 µM (inactive).

Turning to `CCOC(=O)C1(Cc2ccccc2C)CCCN(Cc2ccc(NC(C)=O)cc2)C1` (stereo not drawn), the EC50 was > 50 µM (inactive).

In the case of `CCOC(=O)C1(CC2CC2)CCN(Cc2ccc(NC(C)=O)cc2)CC1`, the EC50 was > 50 µM (inactive).

On to `CCOC(=O)C1(Cc2ccc(OC)cc2)CCN(C(=O)c2ccc(N(C)C)cc2)CC1`, for which the EC50 was > 50 µM (inactive).

For `CCOC(=O)C1(Cc2ccccc2)CCCN(Cc2ccc(NC(C)=O)cc2)C1` (stereo not drawn), the EC50 is > 50 µM (inactive).

Source of the values: PubChem BioAssay AID651762 (The Scripps Research Institute Molecular Screening Center, 2012).
